Measurements reported in ChEMBL document CHEMBL5257105, “Identification and structure-activity relationships for a series of N, N-disubstituted 2-aminobenzothiazoles as potent inhibitors of S. aureus” (Bioorg Med Chem Lett, 2023).
Values after ≈ are worked out from the molar mass of the structure shown. Values belong to the compound of their own block, whether it stands above or below them. Active and inactive are the calls of the source. The calls are words filed in the database; no cut-off is given here.

How the values were obtained:
[1] = test system: Staphylococcus aureus; assay: Antibacterial activity against Staphylococcus aureus; assay type: functional; details: for MIC80: read-out: MIC80
[2] = test system: A549; assay: (§1) Cytotoxicity against human A549 cells; assay type: toxicity, cell-based; details: a549
[3] = as §1; assay type: toxicity, cell-based; details: A549 cells
[4] = test system: Pseudomonas aeruginosa; assay: Antibacterial activity against Pseudomonas aeruginosa PAO1; assay type: functional
[5] = test system: Escherichia coli; assay: Antibacterial activity against Escherichia coli; assay type: functional
[6] = test system: Escherichia coli; assay: Antibacterial activity against wild type Escherichia coli harbouring pore; assay type: functional
[7] = test system: Escherichia coli; assay: Antibacterial activity against […] Escherichia coli harbouring TolC-deficient mutant; assay type: functional
[8] = test system: Escherichia coli; assay: Antibacterial activity against […] Escherichia coli harbouring TolC-deficient mutant with pore; assay type: functional
[9] = test system: Pseudomonas aeruginosa; assay: Antibacterial activity against Pseudomonas aeruginosa PAO1 harbouring pore; assay type: functional
[10] = test system: Pseudomonas aeruginosa; assay: Antibacterial activity against Pseudomonas aeruginosa PAO1 harbouring delta6 mutant; assay type: functional
[11] = test system: Pseudomonas aeruginosa; assay: Antibacterial activity against Pseudomonas aeruginosa PAO1 harbouring delta6 mutant with pore; assay type: functional
[12] = Selectivity ratio of CC50 for human A549 cells to MIC for Staphylococcus aureus; assay type: toxicity
[13] = test system: Escherichia coli; assay: Antibacterial activity against Escherichia coli BW25113; assay type: functional
[14] = test system: Acinetobacter baumannii; assay: Antibacterial activity against Acinetobacter baumannii ATCC 17978; assay type: functional
[15] = test system: Staphylococcus aureus; assay: Antibacterial activity against Staphylococcus aureus ATCC 215; assay type: functional
[16] = test system: Staphylococcus aureus; assay: Antibacterial activity against Staphylococcus aureus ATCC 216; assay type: functional
[17] = test system: Staphylococcus aureus; assay: Antibacterial activity against Staphylococcus aureus ATCC 217; assay type: functional
[18] = test system: Staphylococcus aureus; assay: Antibacterial activity against Staphylococcus aureus ATCC 219; assay type: functional
[19] = test system: Staphylococcus aureus; assay: Antibacterial activity against Staphylococcus aureus ATCC 223; assay type: functional
[20] = test system: Staphylococcus aureus; assay: Antibacterial activity against Staphylococcus aureus ATCC 701; assay type: functional
[21] = test system: Staphylococcus aureus; assay: Antibacterial activity against Staphylococcus aureus ATCC 711; assay type: functional
[22] = test system: Staphylococcus aureus; assay: Antibacterial activity against Staphylococcus aureus ATCC 716; assay type: functional
[23] = test system: Staphylococcus aureus; assay: Bacteriostatic activity against Staphylococcus aureus ATCC 25923 at MIC measured after 5 to 40 hrs by time kill assay; assay type: functional, organism-based; details: time 5-40 hrs
[24] = test system: Staphylococcus aureus; assay: Bacteriostatic activity against Staphylococcus aureus ATCC 25923 at 4 times MIC measured after 5 to 40 hrs by time kill assay; assay type: functional, organism-based; details: time 5-40 hrs
[25] = test system: Staphylococcus aureus; assay: Bactericidal activity against Staphylococcus aureus ATCC 25923 at 16 times MIC measured after 9.5 to 40 hrs by time kill assay; assay type: functional, organism-based; details: time 9.5-40 hrs
[26] = test system: Staphylococcus aureus; assay: Antibacterial activity against Staphylococcus aureus ATCC 25923; assay type: functional
[27] = Staphylococcus aureus, read-out: MIC

- MIC [1, 27]: 3.3 µM (≈ 1.28 µg/mL)
SMILES: Cc1cc(Cl)cc2sc(N(CCCn3ccnc3)C(=O)C3(C)CC3)nc12
- CC50 [2]: 54.6 µM

- MIC [1, 27]: 7.4 µM (≈ 3.05 µg/mL)
SMILES: Cc1cc(Cl)cc2sc(N(CCCn3ccnc3)C(=O)c3ccccn3)nc12
- CC50 [2]: 44.5 µM

- MIC80 ([1]; Staphylococcus aureus): 5.9 µM (≈ 2.13 µg/mL)
SMILES: Cc1cc(Cl)cc2sc(N(CCCn3ccnc3)CC3CC3)nc12
- CC50 [3]: 65.6 µM

- MIC80 ([1]; Staphylococcus aureus): 2.6 µM (≈ 1.2 µg/mL)
SMILES: Cc1cc(Cl)cc2sc(N(CCCn3ccnc3)CS(=O)(=O)c3ccccc3)nc12
- CC50 [3]: 23.3 µM

- MIC [1, 27]: 19.8 µM (≈ 6.08 µg/mL)
SMILES: Cc1cc(Cl)cc2sc(NCCCn3ccnc3)nc12
- CC50 [3]: 111 µM

- MIC [1, 27]: 3.9 µM (≈ 1.67 µg/mL)
SMILES: Cc1cc(C(=O)N(CCCn2ccnc2)c2nc3c(C)cc(Cl)cc3s2)oc1C
- CC50 [2]: 52.1 µM

- MIC [1, 27]: 2.6 µM (≈ 1.08 µg/mL)
SMILES: Cc1ccc(C(=O)N(CCCn2ccnc2)c2nc3c(C)cc(Cl)cc3s2)o1
- CC50 [2]: 35.2 µM

- MIC [1, 27]: 2.6 µM (≈ 1.04 µg/mL)
SMILES: Cc1cc(Cl)cc2sc(N(CCCn3ccnc3)C(=O)c3ccoc3)nc12
- CC50 [2]: 53.4 µM

- MIC [1, 27]: 4.9 µM (≈ 2.01 µg/mL)
SMILES: Cc1cc(Cl)cc2sc(N(CCCn3ccnc3)C(=O)c3ccccc3)nc12
- CC50 [2]: 37.2 µM

- MIC [1, 27]: 1.7 µM (≈ 0.685 µg/mL)
SMILES: Cc1cc(Cl)cc2sc(N(CCCn3ccnc3)C(=O)C3CCCC3)nc12
- CC50 [2]: 59.7 µM
- selectivity ratio [12]: 34

More lines, now with the values behind:

SMILES: O=C(c1ccco1)N(CCCn1ccnc1)c1nc2ccc(Cl)nc2s1
- MIC [1, 27]: > 100 µM

SMILES: Cc1cc(Cl)cc2sc(N(CCCn3ccnc3)C(=O)C(C)C)nc12
- MIC [1]: 2.6 µM (≈ 0.98 µg/mL)
- MIC [1, 27]: 3.9 µM (≈ 1.47 µg/mL)
- CC50 [3]: 46.4 µM
- MIC [4]: > 200 µM
- MIC [5]: > 100 µM
- MIC [6]: > 100 µM
- MIC [7]: 3.2 µM (≈ 1.21 µg/mL)
- MIC [8]: 3.2 µM (≈ 1.21 µg/mL)
- MIC [9]: > 200 µM
- MIC [10]: 50 µM (≈ 18.8 µg/mL)
- MIC [11]: 0.78 µM (≈ 0.294 µg/mL)

SMILES: Cc1cc(Cl)cc2sc(NC(=O)c3ccco3)nc12
- MIC [1, 27]: > 100 µM
- CC50 [3]: 17.9 µM

SMILES: Cc1cc(Cl)cc2sc(N(CCCn3ccnc3)C(=O)c3ccco3)nc12
- CC50 [3]: 34.1 µM
- CC50 [2]: 12 µM
- MIC [13]: > 100 µM
- MIC [14]: > 100 µM
- MIC [4]: > 100 µM
- MIC [15]: 14.8 µM (≈ 5.93 µg/mL)
- MIC [16]: 4.4 µM (≈ 1.76 µg/mL)
- MIC [17]: 6.6 µM (≈ 2.65 µg/mL)
- MIC [18]: 2.9 µM (≈ 1.16 µg/mL)
- MIC [19]: 6.6 µM (≈ 2.65 µg/mL)
- MIC [20]: 4.4 µM (≈ 1.76 µg/mL)
- MIC [21]: 6.6 µM (≈ 2.65 µg/mL)
- MIC [22]: 4.4 µM (≈ 1.76 µg/mL)
- Activity [23]: Active
- Activity [24]: Active
- Activity [25]: Active
- MIC [10]: > 200 µM
- MIC [11]: 6.25 µM (≈ 2.51 µg/mL)

SMILES: O=C(O)c1cn(C2CC2)c2cc(N3CCNCC3)c(F)cc2c1=O [CIPROFLOXACIN]
- MIC [26]: < 0.9 µM

SMILES: Cc1cccc2sc(N(CCCn3ccnc3)C(=O)c3ccco3)nc12
- MIC [1, 27]: 7.4 µM (≈ 2.71 µg/mL)
- CC50 [3]: 84.7 µM

SMILES: Cc1cc(Cl)cc2sc(N(CCCn3ccnc3)C(=O)c3ccc[nH]3)nc12
- MIC [1, 27]: 1.7 µM (≈ 0.68 µg/mL)
- CC50 [2]: > 100 µM
- MIC [4]: > 100 µM
- MIC [5]: > 200 µM
- MIC [6]: > 200 µM
- MIC [7]: 1.56 µM (≈ 0.624 µg/mL)
- MIC [8]: 0.78 µM (≈ 0.312 µg/mL)
- MIC [9]: > 100 µM
- MIC [10]: > 100 µM

SMILES: Cc1nc(Cl)cc2sc(N(CCCn3ccnc3)C(=O)c3ccco3)nc12
- MIC [1, 27]: > 100 µM

SMILES: O=C(c1ccco1)N(CCCn1ccnc1)c1nc2c(F)cc(F)cc2s1
- MIC [1, 27]: 16.5 µM (≈ 6.41 µg/mL)
- CC50 [3]: 93.7 µM
